Test results reported in patent US20240325493A1, “REGULATOR OF TUMOR CELL FUNCTIONS AND USES THEREOF” (Washington University, priority 2023, published 2024).

Assays:
[1] = tested on: Zbtb46 in MCEC (mouse cardiac endothelial cells); assay: Zbtb46 mRNA expression in MCEC cells treated with tumor-derived factors; assay type: cell-based; conditions: in vitro, 24 hours
Protocol: FIG. 13A is a set of graphs of Zbtb46 mRNA expression in MCEC cells, with loading control b-Actin (left) and Gapdh (right), treated with PBS or tumor-conditioned media (TCM) for 24 hours. n≥3/group. One-way ANOVA with Dunnett's test.
(§1) Quantitative real-time reverse transcription PCR (qRT-PCR) was performed. cDNA was prepared with qScript™ CDNA SuperMix (Cat: 101414-106, VWR) according to the manufacturer's protocol. Gene expression was measured by quantitative real-time RT-PCR using primers.

[2] = tested on: Zbtb46 in bone marrow-derived dendritic cells (BMDC); assay: Zbtb46 mRNA expression in bone marrow-derived dendritic cells treated with tumor-derived factors; assay type: cell-based, mouse; conditions: in vitro, 24 hours, vs PBS
Protocol: FIG. 13B is a graph of Zbtb46 mRNA expression in bone marrow-derived dendritic cells (BMDC) treated with PBS, prostaglandin E2 (PGE2), vascular endothelial growth factor (VEGF), or retinoic acid (RA) for 24 hours. n≥3/group. One-way ANOVA with Dunnett's test.
as §1

Compound	Zbtb46 expression in EC [1]	Zbtb46 expression in DC [2]
CCCCC[C@H](O)/C=C/[C@H]1[C@H](O)CC(=O)[C@@H]1C/C=C\CCCC(=O)O [PGE2, prostaglandin E2]	downregulated	downregulated
VEGF	downregulated	downregulated
